Measurements as given in patent US20240124487A1, “BRANCHED MACROCYCLIC 4-(PYRAZOL-5-YL)-INDOLE DERIVATIVES AS INHIBITORS OF MCL-1” (JANSSEN PHARMACEUTICA NV, priority 2020, published 2024).

How the values were obtained:
[1] = test system: MOLP-8 human multiple myeloma cell line; experiment: MOLP8 Caspase-Glo 3/7 apoptosis induction assay; format: cell-based; conditions: MOLP-8 cells, 2 hours incubation at 37° C., averaged values over all runs on all batches
From the text: MCL-1 is a regulator of apoptosis and is highly over-expressed in tumor cells that escape cell death. The assay evaluates the cellular potency of small-molecule compounds targeting regulators of the apoptosis pathway, primarily MCL-1, Bfl-1, Bcl-2, and other proteins of the Bcl-2 family. Protein-protein inhibitors disrupting the interaction of anti-apoptotic regulators with BH3-domain proteins initiate apoptosis.
The Caspase-Glo® 3/7 Assay is a luminescent assay that measures caspase-3 and -7 activities in purified enzyme preparations or cultures of adherent or suspension cells. The assay provides a proluminescent caspase-3/7 substrate, which contains the tetrapeptide sequence DEVD. This substrate is cleaved to release aminoluciferin, a substrate of luciferase used in the production of light. Addition of the single Caspase-Glo® 3/7 Reagent in an “add-mix-measure” format results in cell lysis, followed by caspase cleavage of the substrate and generation of a “glow-type” luminescent signal.
This assay uses the MOLP-8 human multiple myeloma cell line, which is sensitive to MCL-1 inhibition.
Materials: • Perkin Elmer Envision • Multidrop 384 and small volume dispensing cassettes • Centrifuge • Countess automated cell counter • Countess counting chamber slides • Assay plate: ProxiPlate-384 Plus, White 384-shallow well Microplate • Sealing tape: Topseal A plus • T175 culture flask
Cell cultures were maintained between 0.2 and 2.0×10^6 cells/mL. The cells were harvested by collection in 50 mL conical tubes. The cells were then pelleted at 500 g for 5 mins before removing supernatant and resuspension in fresh pre-warmed culture medium. The cells were counted and diluted as needed.
The assay reagent was prepared by transferring the buffer solution to the substrate vial and mixing. The solution may be stored for up to 1 week at 4° C. with negligible loss of signal.
Compounds were delivered in assay-ready plates (Proxiplate) and stored at −20° C.
Assays always include 1 reference compound plate containing reference compounds. The plates were spotted with 40 nL of compounds (0.5% DMSO final in cells; serial dilution; 30 μM highest conc. 1/3 dilution, 10 doses, duplicates). The compounds were used at room temperature and 4 μL of pre-warmed media was added to all wells except column 2 and 23. The negative control was prepared by adding 1% DMSO in media. The positive control was prepared by adding the appropriate positive control compound in final concentration of 60 μM in media. The plate was prepared by adding 4 μL negative control to column 23, 4 μL positive control to column 2 and 4 μL cell suspension to all wells in the plate. The plate with cells was then incubated at 37° C. for 2 hours. The assay signal reagent is the Caspase-Glo solution described above, and 8 μL was added to all wells. The plates were then sealed and measured after 30 minutes.
The activity of a test compound was calculated as percent change in apoptosis induction as follows: • LC=median of the Low Control values • =Central Reference in Screener • =DMSO • =0% • HC=Median of the High Control values • =Scale Reference in Screener • =30 μM of positive control • =100% apoptosis induction
% Effect (AC50)=100−((sample−LC)/(HC−LC))*100
% Control=(sample/HC)*100
% Control min=((sample−LC)/(HC−LC))*100

[2] = biological target: Myeloid Cell Leukemia 1 (Mcl-1) (Homo sapiens (Human), UniProt Q07820); experiment: Terbium labeled Mcl-1 HTRF binding assay (displacement of Cy5-labeled BIM BH3 peptide); conditions: 25 pM Tb-Mcl-1, 8 nM Cy5 Bim peptide, Ki=IC50/(1+[L]/Kd), [L]=8 nM, Kd=10 nM, read-out: TB-MCL1 Ki
Experimental: Terbium labeled Myeloid Cell Leukemia 1 (Mcl-1) homogeneous time-resolved fluorescence (HTRF) binding assay utilizing the BIM BH3 peptide (H2N-(C/Cy5Mal) WIAQELRRIGDEFN-OH) as the binding partner for Mcl-1.
This assay evaluated inhibition of the BH3 domain: Mcl-1 interaction by measuring the displacement of Cy5-labeled BIM BH3 peptide (H2N—(C/Cy5Mal) WIAQELRRIGDEFN-OH) in the HTRF assay format.
The following assay and stock buffers were prepared for use in the assay: (a) Stock buffer: 10 mM Tris-HCl, pH=7.5+150 mM NaCl, filtered, sterilized, and stored at 4° C.; and (b) 1× assay buffer, where the following ingredients were added fresh to stock buffer: 2 mM dithiothreitol (DTT), 0.0025% Tween-20, 0.1 mg/mL bovine serum albumin (BSA). The 1×Tb-Mcl-1+Cy5 Bim peptide solution was prepared by diluting the protein stock solution using the 1× assay buffer (b) to 25 pM Tb-Mcl-1 and 8 nM Cy5 Bim peptide.
Using the Acoustic ECHO, 100 nL of 100× test compound(s) were dispensed into individual wells of a white 384-well Perkin Elmer Proxiplate, for a final compound concentration of 1× and final DMSO concentration of 1%. Inhibitor control and neutral control (NC, 100 nL of 100% DMSO) were stamped into columns 23 and 24 of assay plate, respectively. Into each well of the plate was then dispensed 10 μL of the 1×Tb-Mcl-1+Cy5 Bim peptide solution. The plate was centrifuged with a cover plate at 1000 rpm for 1 minute, then incubated for 60 minutes at room temperature with plates covered. The TR-FRET signal was read on an BMG PHERAStar FSX MicroPlate Reader at room temperature using the HTRF optic module (HTRF: excitation: 337 nm, light source: laser, emission A: 665 nm, emission B: 620 nm, integration start: 60 μs, integration time: 400 pts).
The BMG PHERAStar FSX MicroPlate Reader was used to measure fluorescence intensity at two emission wavelengths—665 nm and 620 nm—and report relative fluorescence units (RFU) for both emissions, as well as a ratio of the emissions (665 nm/620 nm)*10,000. The RFU values were normalized to percent inhibition as follows:
% inhibition=(((NC−IC)−(compound−IC))/(NC−IC))*100
where IC (inhibitor control, low signal)=mean signal of 1×Tb-MC1-1+Cy5 Bim peptide+inhibitor control or 100% inhibition of Mcl-1; NC (neutral control, high signal)=mean signal 1×Tb-MC1-1+Cy5 Bim peptide with DMSO only or 0% inhibition
An 11-point dose response curve was generated to determine IC50 values (using GenData) based on the following equation:
Y=Bottom+(Top−Bottom)/(1+10^((log IC50−X)*HillSlope))
where Y=% inhibition in the presence of X inhibitor concentration; Top=100% inhibition derived from the IC (mean signal of Mcl-1+inhibitor control); Bottom=0% inhibition derived from the NC (mean signal of Mcl-1+DMSO); Hillslope=Hill coefficient; and IC50=concentration of compound with 50% inhibition in relation to top/neutral control (NC).
In this assay [L]=8 nM and Kd=10 nM
Representative compounds of the present invention were tested according to the procedure as described above, with results as listed in the Table below (n.d. means not determined).

Myeloid Cell Leukemia 1 (Mcl-1), sequence (Q07820 whole entry): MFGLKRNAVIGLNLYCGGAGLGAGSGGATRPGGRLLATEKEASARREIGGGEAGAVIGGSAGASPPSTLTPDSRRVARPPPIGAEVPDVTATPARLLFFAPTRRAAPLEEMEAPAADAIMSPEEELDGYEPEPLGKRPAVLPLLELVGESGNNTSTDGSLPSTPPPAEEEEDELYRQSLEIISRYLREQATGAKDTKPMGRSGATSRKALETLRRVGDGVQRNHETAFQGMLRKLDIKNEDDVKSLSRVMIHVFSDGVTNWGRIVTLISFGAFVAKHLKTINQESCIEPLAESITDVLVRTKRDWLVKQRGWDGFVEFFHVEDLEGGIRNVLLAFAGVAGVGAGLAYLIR

| Structure (SMILES) | AC50 [1] [nM] | Ki [2] [nM] | AC50 ([1]; Homo sapiens, MOLP-8, 2 h) [nM] |
| --- | --- | --- | --- |
| C=CC1OCc2cc(n(C)n2)CCc2cc(c3ccc(F)cc3c2)OCCCn2c(C(=O)O)c(C)c3c(c(Cl)ccc32)-c2c1nn(C)c2C (single isomer, unassigned) [Compound 1] | 101 | 0.059 | – |
| C=CC1OCc2cc(n(C)n2)CCc2cc(c3ccc(F)cc3c2)OCCCn2c(C(=O)O)c(C)c3c(c(Cl)ccc32)-c2c1nn(C)c2C (single isomer, unassigned) [Compound 2] | 19.5 | 0.024 | – |
| COCCC1OCc2cc(n(C)n2)CCc2cc(c3ccc(F)cc3c2)OCCCn2c(C(=O)O)c(C)c3c(c(Cl)ccc32)-c2c1nn(C)c2C (single isomer, unassigned) [Compound 3] | 154 | 0.039 | – |
| COCCC1OCc2cc(n(C)n2)CCc2cc(c3ccc(F)cc3c2)OCCCn2c(C(=O)O)c(C)c3c(c(Cl)ccc32)-c2c1nn(C)c2C (single isomer, unassigned) [Compound 4] | 28.4 | 0.009 | – |
| COCCOCCC1OCc2cc(n(C)n2)CCc2cc(c3ccc(F)cc3c2)OCCCn2c(C(=O)O)c(C)c3c(c(Cl)ccc32)-c2c1nn(C)c2C (single isomer, unassigned) [Compound 5] | – | 0.011 | 22.6 |
| Cc1c(C(=O)O)n2c3ccc(Cl)c(c13)-c1c(nn(C)c1C)C(CCN1CCOCC1)OCc1cc(n(C)n1)CCc1cc(c3ccc(F)cc3c1)OCCC2 (single isomer, unassigned) [Compound 7] | – | 0.011 | 149 |
| Cc1c(C(=O)O)n2c3ccc(Cl)c(c13)-c1c(nn(C)c1C)C(CCN1CCN(C)CC1)OCc1cc(n(C)n1)CCc1cc(c3ccc(F)cc3c1)OCCC2 (single isomer, unassigned) [Compound 8] | – | 0.013 | 1160 |
| CCOCCC1OCc2cc(n(C)n2)CCc2cc(c3ccc(F)cc3c2)OCCCn2c(C(=O)O)c(C)c3c(c(Cl)ccc32)-c2c1nn(C)c2C (single isomer, unassigned) [Compound 9] | – | 0.009 | 43.6 |
| Cc1c(C(=O)O)n2c3ccc(Cl)c(c13)-c1c(nn(C)c1C)C(CCCO)OCc1cc(n(C)n1)CCc1cc(c3ccc(F)cc3c1)OCCC2 (single isomer, unassigned) [Compound 10] | 1060 | 0.028 | – |
| Cc1c(C(=O)O)n2c3ccc(Cl)c(c13)-c1c(nn(C)c1C)C(CCCO)OCc1cc(n(C)n1)CCc1cc(c3ccc(F)cc3c1)OCCC2 (single isomer, unassigned) [Compound 11] | 303 | 0.01 | – |
| COCCCC1OCc2cc(n(C)n2)CCc2cc(c3ccc(F)cc3c2)OCCCn2c(C(=O)O)c(C)c3c(c(Cl)ccc32)-c2c1nn(C)c2C (single isomer, unassigned) [Compound 12] | 57.8 | 0.015 | – |
| Cc1c(C(=O)O)n2c3ccc(Cl)c(c13)-c1c(nn(C)c1C)C(CN1CCOCC1)OCc1cc(n(C)n1)CCc1cc(c3ccc(F)cc3c1)OCCC2 (single isomer, unassigned) [Compound 13] | – | 0.058 | 1370 |
| COCCOCC1OCc2cc(n(C)n2)CCc2cc(c3ccc(F)cc3c2)OCCCn2c(C(=O)O)c(C)c3c(c(Cl)ccc32)-c2c1nn(C)c2C (single isomer, unassigned) [Compound 14] | – | 0.018 | 205 |
| COCC1OCc2cc(n(C)n2)CCc2cc(c3ccc(F)cc3c2)OCCCn2c(C(=O)O)c(C)c3c(c(Cl)ccc32)-c2c1nn(C)c2C (single isomer, unassigned) [Compound 15] | 66.1 | 0.048 | – |
| COCC1OCc2cc(n(C)n2)CCc2cc(c3ccc(F)cc3c2)OCCCn2c(C(=O)O)c(C)c3c(c(Cl)ccc32)-c2c1nn(C)c2C (single isomer, unassigned) [Compound 16] | 230 | 0.104 | – |
| Cc1c(C(=O)O)n2c3ccc(Cl)c(c13)-c1c(nn(C)c1C)C(C)OCc1cc(n(C)n1)CCc1cc(c3ccc(F)cc3c1)OCCC2 (single isomer, unassigned) [Compound 17] | 129 | 0.042 | – |
| Cc1c(C(=O)O)n2c3ccc(Cl)c(c13)-c1c(nn(C)c1C)C(C)OCc1cc(n(C)n1)CCc1cc(c3ccc(F)cc3c1)OCCC2 (single isomer, unassigned) [Compound 18] | 35.4 | 0.01 | – |
| Cc1c(C(=O)O)n2c3ccc(Cl)c(c13)-c1c(nn(C)c1C)C(CC(C)O)OCc1cc(n(C)n1)CCc1cc(c3ccc(F)cc3c1)OCCC2 (single isomer, unassigned) [Compound 19] | – | 0.057 | 1210 |
| Cc1c(C(=O)O)n2c3ccc(Cl)c(c13)-c1c(nn(C)c1C)C(CC(C)O)OCc1cc(n(C)n1)CCc1cc(c3ccc(F)cc3c1)OCCC2 (single isomer, unassigned) [Compound 20] | 683 | 0.023 | – |
| Cc1nn2c3c1-c1c(Cl)ccc4c1c(C)c(C(=O)O)n4CCCOc1cc(cc4cc(F)ccc14)CCc1cc(nn1C)CCC3OCC2 (stereo not drawn) [Compound 27] | 8.5 | – | – |
| Cc1nn2c3c1-c1c(Cl)ccc4c1c(C)c(C(=O)O)n4CCCOc1cc(cc4cc(F)ccc14)CCc1cc(nn1C)CCC3OCC2 (stereo not drawn) [Compound 28] | > 30 | – | – |
| Cc1nn2c3c1-c1c(Cl)ccc4c1c(C)c(C(=O)O)n4CCCOc1cc(cc4cc(F)ccc14)CCc1cc(nn1C)CCC3OCC2 (stereo not drawn) [Compound 30] | 52.8 | – | – |
| COCCn1nc2cc1CCc1cc(c3ccc(F)cc3c1)OCCCn1c(C(=O)O)c(C)c3c(c(Cl)ccc31)-c1c(C)nn3c1C(CC2)OCC3 (stereo not drawn) [Compound 31] | – | – | 48.6 |
